This note sets out measurements from BindingDB's records for patent US9695132 (Celgene CAR LLC, 2017).

In experiment [1] the target is T1, Fibroblast growth factor receptor 4 (Homo sapiens, UniProt P22455). As to the kind of experiment: Omnia Assay. To be noted: pH 7.5.
Experiment [2] has as its target T1, Fibroblast growth factor receptor 4. As to the kind of experiment: Omnia Assay. The settings on record: pH 7.5. As for the experimental part: Omnia Assay Protocol for Potency Assessment Against FGFR 4 Enzyme. a) [FGFR4-WT]=10 nM, [ATP]=300 uM, [Y10-Sox]=10 uM (ATP KMapp 300 uM): A 10x stock solution of FGFR4-WT (PR4380C), (from Invitrogen, Carlsbad, Calif.) corresponding to method a in Table 7, was prepared as described below. Alternatively, a 10x stock solution of FGFR4-WT (F01-11G), (SignalChem, Richmond, BC) corresponding to method b in Table 7, was prepared as described below. A solution of 1.4xATP (AS001A) and 5x Tyr-Sox conjugated peptide substrate (KNZ3101) were prepared in 1x kinase reaction buffer consisting of 20 mM Tris, pH 7.5, 5 mM MgCl2, 1 mM EGTA, 5 mM β-glycerophosphate, 5% glycerol (10x stock, KB002A) and 0.2 mM DTT (DS001A). […] The serially diluted compounds were prepared on a Tecan EVO100. A second addition of 10 ul of Tyr-Sox FGFR4 substrate was added to each well and the kinase reactions were started with the addition of 35 uL of 1.4xATP. The reactions were monitored every 71 seconds for 240 minutes at λex360/λem485 in a Synergy plate reader from BioTek (Winooski, Vt.).
The source holds these as a separate data set.

T1 sequence (P22455 whole entry): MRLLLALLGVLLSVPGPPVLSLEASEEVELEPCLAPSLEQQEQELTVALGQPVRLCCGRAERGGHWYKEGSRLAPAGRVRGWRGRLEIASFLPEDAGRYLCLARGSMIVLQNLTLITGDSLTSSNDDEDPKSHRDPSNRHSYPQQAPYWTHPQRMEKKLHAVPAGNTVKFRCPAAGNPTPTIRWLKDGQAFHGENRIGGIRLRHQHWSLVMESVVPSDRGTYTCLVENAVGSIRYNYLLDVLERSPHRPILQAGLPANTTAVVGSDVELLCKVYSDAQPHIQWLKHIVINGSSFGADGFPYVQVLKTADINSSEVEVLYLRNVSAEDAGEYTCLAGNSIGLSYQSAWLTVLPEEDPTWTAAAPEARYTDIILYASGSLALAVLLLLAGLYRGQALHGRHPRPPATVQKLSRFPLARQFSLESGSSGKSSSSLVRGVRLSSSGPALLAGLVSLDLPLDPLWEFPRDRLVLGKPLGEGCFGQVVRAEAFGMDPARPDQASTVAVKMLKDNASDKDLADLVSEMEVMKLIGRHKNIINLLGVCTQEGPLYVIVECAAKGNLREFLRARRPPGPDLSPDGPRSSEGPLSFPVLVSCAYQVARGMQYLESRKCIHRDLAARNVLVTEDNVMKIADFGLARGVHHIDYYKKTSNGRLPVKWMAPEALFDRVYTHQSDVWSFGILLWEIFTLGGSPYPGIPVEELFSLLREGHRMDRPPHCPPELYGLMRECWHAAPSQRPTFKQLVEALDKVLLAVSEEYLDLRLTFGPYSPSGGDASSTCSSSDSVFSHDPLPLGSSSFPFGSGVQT

In turn, `C=CC(=O)Nc1cccc(Nc2ncc3c(n2)N(Cc2cccc(NC(=O)CC)c2)C(=O)C(c2c(Cl)c(OC)cc(OC)c2Cl)C3)c1` (centres undefined) [US9695132, I-232] returned a concentration for half-maximal inhibition (IC50) in experiment [1] of under 100 nM. Consider `C=CC(=O)NC1COCC1Nc1ncc2c(n1)N(Cc1c[nH]cn1)C(=O)N(c1c(Cl)c(OC)cc(OC)c1Cl)C2` (centres undefined) [US9695132, I-214], for which, in experiment [2], the half-inhibitory concentration (IC50) is under 100 nM.

For `C=CC(=O)Nc1cc(N2CCC(C(=O)OC(C)(C)C)CC2)ccc1Nc1ncc2c(n1)N(C)C(=O)N(c1c(Cl)c(OC)cc(OC)c1Cl)C2` [US9695132, I-62], the IC50 in experiment [2] was under 100 nM. The compound `C=CC(=O)Nc1ccc(Nc2ncc3c(n2)N(Cc2cccc(NC(=O)CC)c2)C(=O)C(c2c(Cl)c(OC)cc(OC)c2Cl)C3)cc1` (centres undefined) [US9695132, I-233] showed a concentration for half-maximal inhibition (IC50) in experiment [1] of under 100 nM.
